± gives the expanded uncertainty stated by the source.
Details: Liquid, Ebulliometric method (Recirculating still)

CCCCCC(C)=O [2-heptanone]
Details	vapor or sublimation pressure [kPa]
354.77 K	9.87 ± 0.73
358.59 K	11.52 ± 0.73
365.38 K	15.05 ± 0.73
367.88 K	16.52 ± 0.74
368.9 K	17.34 ± 0.75
373.79 K	20.76 ± 0.74
373.84 K	20.76 ± 0.74
379.25 K	25.32 ± 0.75
379.3 K	25.32 ± 0.75
383.78 K	29.69 ± 0.76
383.83 K	29.69 ± 0.76
388.51 K	34.81 ± 0.77
392.54 K	40 ± 0.88
393.11 K	40.52 ± 0.79
398.45 K	48.09 ± 0.81
403.15 K	55.74 ± 0.83
405.81 K	60.35 ± 0.84
409.67 K	67.5 ± 0.86
413.3 K	75.05 ± 0.9
416.77 K	83.2 ± 0.92
420.2 K	91.5 ± 0.93

CCCCC(=O)CC [3-heptanone]
Details	vapor or sublimation pressure [kPa]
354.82 K	11.05 ± 0.73
358.58 K	12.93 ± 0.73
363.03 K	15.51 ± 0.74
367.95 K	18.75 ± 0.74
373.6 K	23.27 ± 0.75
377.99 K	27.11 ± 0.76
383.09 K	32.58 ± 0.77
388.11 K	40 ± 0.9
388.36 K	40 ± 0.9
388.62 K	39.13 ± 0.78
388.67 K	40 ± 0.9
393.02 K	45.12 ± 0.81
398.84 K	54.02 ± 0.83
404.44 K	64.03 ± 0.86
409.63 K	74.5 ± 0.89
412.95 K	82 ± 0.93
416.5 K	90.5 ± 0.94

CCCCO [butan-1-ol]
Details	vapor or sublimation pressure [kPa]
390.49 K	101.3 ± 1.5

CCCCCCCCC [nonane]
Details	vapor or sublimation pressure [kPa]
391.78 K	40 ± 0.88
391.87 K	40 ± 0.88
391.9 K	40 ± 0.88

CCO [ethanol]
Details	vapor or sublimation pressure [kPa]
351.14 K	101.3 ± 1.5

CCCCCCCCCC [decane]
Details	vapor or sublimation pressure [kPa]
413.88 K	40 ± 0.88

CCCC(=O)CCC [4-heptanone]
Details	vapor or sublimation pressure [kPa]
358.74 K	14.54 ± 0.74
363.42 K	17.72 ± 0.74
370.01 K	22.69 ± 0.75
377.77 K	29.93 ± 0.76
383.7 K	36.63 ± 0.78
385.47 K	40 ± 0.9
385.5 K	40 ± 0.9
385.87 K	40 ± 0.9
388.63 K	43.17 ± 0.8
393.78 K	50.95 ± 0.83
398.38 K	59.15 ± 0.85
403.74 K	69.39 ± 0.88
407.98 K	78.55 ± 0.91
411.2 K	86.2 ± 0.94
413.43 K	91.55 ± 0.94

CCCCCCCC [octane]
Details	vapor or sublimation pressure [kPa]
367.97 K	40 ± 0.88
368.3 K	40 ± 0.88
368.32 K	40 ± 0.88

— the NIST ThermoML archive (doi:10.1021/je500731x)
